Source: patent publication US8288139B2, “Sulfotransferase inhibitors” (Seikagaku Corporation, priority 2002, dated 2012)

Target: T1, human-derived GalNAc4S6ST (Homo sapiens, UniProt Q7LFX5)
T1 construct: made in house
T1 sequence (Q7LFX5 1-561): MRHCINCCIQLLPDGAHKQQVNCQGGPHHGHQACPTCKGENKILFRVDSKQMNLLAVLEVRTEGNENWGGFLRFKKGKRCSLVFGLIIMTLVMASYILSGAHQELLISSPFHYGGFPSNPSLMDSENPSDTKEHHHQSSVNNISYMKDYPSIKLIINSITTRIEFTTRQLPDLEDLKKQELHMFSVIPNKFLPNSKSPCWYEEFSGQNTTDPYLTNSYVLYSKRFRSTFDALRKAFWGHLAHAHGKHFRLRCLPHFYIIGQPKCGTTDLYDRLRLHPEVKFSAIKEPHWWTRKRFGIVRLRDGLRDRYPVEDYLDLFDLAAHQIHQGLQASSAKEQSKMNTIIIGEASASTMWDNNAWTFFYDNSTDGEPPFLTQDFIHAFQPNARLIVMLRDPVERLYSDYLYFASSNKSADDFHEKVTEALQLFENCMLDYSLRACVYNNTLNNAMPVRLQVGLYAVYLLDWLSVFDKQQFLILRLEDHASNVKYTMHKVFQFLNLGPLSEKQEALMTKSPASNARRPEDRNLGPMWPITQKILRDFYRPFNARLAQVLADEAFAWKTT
Assay: Inhibition of GalNAc4S6ST enzyme activity ([35S]PAPS sulfate transfer to chondroitin sulfate A)
Type: biochemical
Details: for strength of inhibitory activity upon GalNAc4S6ST, α type and β type of the same formula compared: Substance 1 vs 2, 3 vs 4, 5 vs 6, 50, 125 or 250 nmol in 50 μl reaction; for inhibitory activity upon GalNAc4S6ST (relative value of the enzyme reaction, system without substance = 100%): substance added at 50 nmol, 125 nmol or 250 nmol to 50 μl reaction, 37° C., 20 minutes, values only in FIG. 1-3
Description: The enzyme activity was measured by modifying the method described in J. Biol. Chem., 276, 43894-43900 (2001). As the standard reaction solution, 2.5 μmol of imidazole-HCl (pH 6.8), 0.5 μmol of CaCl2, 1 μmol of reduced type glutathione, 25 nmol in galactosamine equivalent of chondroitin sulfate A (derived from whale cartilage, manufactured by Seikagaku Corporation), 50 pmol of [^35S]PAPS (active sulfate: about 5.0×10^5 cpm: prepared according to Anal Biochem., 148, 303-310 (1985)), and human-derived GalNAc4S6ST prepared according to the method described in J. Biol. Chem., 276, 43894-43900 (2001) were added to 50 μl. The reaction was started by adding each of Substance 1 of the present invention, Substance 2 of the present invention, Substance 3 of the present invention, Substance 4 of the present invention, Substance 5 of the present invention and Substance 6 of the present invention to this reaction system to give a final concentration of 50 nmol, 125 nmol or 250 nmol.
The reaction was carried out by incubating the reaction solution at 37° C. for 20 minutes, and the reaction was terminated by heating the reaction tubes in boiling water for 1 minute. After termination of the reaction, 3 volumes of ethanol containing 1.3% potassium acetate was added thereto to thereby precipitate the ^35S-labeled glycosaminoglycan, followed by gel chromatography using a high performance desalting column according to the method described in J. Biol. Chem., 268, 21968-21974 (1993), and then the radioactivity was measured by using a scintillation counter. A reaction system to which the enzyme was not added was used as the negative control.
By using the enzyme activity of a system to which the substance of the present invention was not added as the positive control and regarding it as 100%, relative values of the enzyme reaction in a system to which the substance of the present invention was added were calculated (Substance 1 of the present invention and Substance 2 of the present invention: FIG. 1, Substance 3 of the present invention and Substance 4 of the present invention: FIG. 2, Substance 5 of the present invention and Substance 6 of the present invention: FIG. 3).

| strength of inhibitory activity upon GalNAc4S6ST, α type and β type of the same formula compared | inhibitory activity upon GalNAc4S6ST (relative value of the enzyme reaction, system without substance = 100%) | SMILES |
| --- | --- | --- |
| stronger inhibitory activity | – | CC(=O)NC1[C@H](Oc2ccccc2)OC(CO)[C@H](OS(=O)(=O)O)[C@@H]1O (stereo partly shown) [Substance 6] |
| particularly strong | inhibitory activity was observed | CC(=O)NC1[C@H](Oc2ccccc2)OC(COS(=O)(=O)O)[C@H](O)[C@@H]1O (stereo partly shown) [Substance 2] |
| – | inhibitory activity was observed | CC(=O)NC1[C@@H](Oc2ccccc2)OC(COS(=O)(=O)O)[C@H](O)[C@@H]1O (stereo partly shown) [Substance 1] |
